According to article PMC8346995, “Synthesis, Characterization, In Vitro Anticancer Potentiality, and Antimicrobial Activities of Novel Peptide–Glycyrrhetinic-Acid-Based Derivatives” (Molecules, 2021):
Converted amounts (≈) assume the structure as drawn. Residues, ends and D or L forms follow the SMILES beside them. *: point of attachment. X1 = CC1(C(=O)*)CCC2(C)CCC3(C)C(=CC(=O)C4C5(C)CCC(O)C(C)(C)C5CCC43C)C2C1

Columns and labels:
[1] = system: human breast MCF-7 cancer cell line; assay: MTT cytotoxicity assay, breast MCF-7 cancer cell line; format: cell-based; conditions: Homo sapiens, MCF7; MTT, mean of three replicates; read-out: IC50 (µg/mL) ± SD MCF-7
Experimental: (§1) Accordingly, all the newly synthesized GA-based peptides except 1 and 6 were screened for their cytotoxicity against three different human cancer cell lines: MCF-7, HCT-116, and HepG-2 cell lines at different concentrations (10, 5, 2.5, 1.25, and 0.625 µg/mL).
(§2) Human breast MCF-7, colon HCT-116, and liver HepG-2 carcinoma cell line were taken from Vacsera (Giza, Egypt). The culture was retained in RPMI 1640 medium with 1% antibiotic–antimycotic mixture (25 μg/mL amphotericin B, 10,000 μg/mL streptomycin sulfate, and 10,000 U/mL potassium penicillin), 1% L-glutamine, and complemented by 10% heat inactivated fetal bovine serum. […] This experiment was carried out according to the reported MTT assay method, and the absorbance was measured at 595 nm.

[2] = system: human colon HCT-116 cancer cell line; assay: MTT cytotoxicity assay, colon HCT-116 cancer cell line; conditions: for IC50: Homo sapiens, HCT-116, read-out: IC50 (µg/mL) ± SD HCT-116
Experimental: as §1, §2

[3] = system: human normal skin fibroblasts cell line BJ-1; assay: Cytotoxicity against normal skin fibroblasts BJ-1; format: cell-based; conditions: human, 10 µg/mL
Experimental: The frequency and severity of side effects to normal cells at therapeutic levels is one of the most critical factors that distinguish different anticancer drugs from each other. Accordingly, the GA peptides 1–8 were furthermore screened for their cytotoxicity at 10 µg/mL against the human normal skin fibroblasts cell line BJ-1 to determine their safety upon normal cells (Figure 4).

[4] = system: Bcl-2; assay: Estimation of Bcl-2 level in MCF-7 cells; format: cell-based, human; conditions: MCF-7 cells treated at IC50 5 μg/mL for 24 h; untreated 7.20 ng/mL
Text: (§3) The extrinsic pathway (death receptor) and the intrinsic pathway (mitochondrial route) are the main two routes that control a cell during apoptosis. The Bcl-2 protein introduces a central role in tumor growth or suppression the intrinsic apoptotic pathway. Conversely, the pro-apoptotic Bax acts essentially to enhance the process of cell apoptosis. Increasing the level of the anti-apoptotic Bcl-2 within the cancerous cell boosts the cell survival through inhibiting apoptosis. Accordingly, a balance situation between these two proteins determines the cell fate. Furthermore, p53 serves as a transcription factor acting as a tumor suppressor protein. This protein is expressed due to various cellular stresses such as DNA disruption. It is usually mutated in human cancers. The p53 pathway mediates either cell cycle arrest or apoptosis controlling the expression of Bcl-2 and Bax genes. Thus, since compound 5 produced the most promising cytotoxic activity against breast cancer cell lines with a safety profile against the normal cells, it was of interest to study its impact on the regulation of the oncogenic markers Bax, Bcl-2, and p53. […]
The samples and standards having Bcl-2 were estimated as previously mentioned. […] Then, the reaction was terminated by adding acid, and the absorbance was measured at 450 nm.

[5] = system: Bax; assay: Estimation of Bax level in MCF-7 cells; format: cell-based, human; conditions: MCF-7 cells treated at IC50 for 24 h; untreated 65.50 Pg/mL
Text: as §3
The levels of Bax protein were evaluated according to the reported method. […] Then, the reaction was terminated by adding acid, and optical density of the produced color was measured at 450 nm.

[6] = system: Human p53; assay: Estimation of human p53 level in MCF-7 cells (ELISA); format: cell-based
Text: as §3, with “genes.” for “genes. Thus, since compound 5 produced the most promising cytotoxic activity against breast cancer cell lines with a safety profile against the normal cells, it was of interest to study its impact on the regulation of the oncogenic markers Bax, Bcl-2, and p53.”
Human p53 present in MCF-7 cells was determined; using Human p53 ELISA-Kit (CS0070 Sigma) read using spectrophotometer at 450 nm against untreated control cells (negative control) and doxorubicin (positive control) applying the standard protocols of the manufacturers. […] Then, the reaction was terminated by adding acid, and the absorbance was measured at 450 nm.

[7] = system: caspase-3; assay: Human CASP-3 (caspase-3) estimation in MCF-7 cells; format: cell-based; conditions: MCF-7 cells treated at IC50 for 24 h; untreated 162 ng/mL
[8] = system: caspase-7; assay: Human CASP-7 (caspase-7) estimation in MCF-7 cells (ELISA); format: cell-based; conditions: for level of caspase-7: MCF-7 cells treated at IC50 for 24 h, untreated 0.3 ng/mL
Experimental: (§4) Caspases are a family of cysteine proteases that are responsible for launching the programmed cell death (apoptosis). […] Cell shrinkage, chromatin condensation, and DNA fragmentation are all apoptosis events, which need the involvement of caspase-7and caspase-3 [48, 54, 56].
The micro-ELISA plate provided in this kit pre-coated with CASP-7-specific antibody. A biotinylated CASP7 antibody and Avidin–horseradish p eroxidase (HRP) conjugate was added. Aspire the excess components. The substrate solution was added. Wells that contain CASP-7, biotinylated detection antibody, and Avidin-HRP conjugate will appear blue in color. The color turns yellow followed the addition of sulfuric acid solution. The optical density (OD) was measured at a wavelength of 450 nm ± 2 nm.

[9] = target: T1, Tubulin Beta (TUBb) (Homo sapiens, UniProt P07437); assay: ELISA kit for Tubulin Beta (TUBb), tubulin polymerization in MCF-7 cells; format: cell-based; conditions: read-out: inhibition of tubulin polymerization IC50 (tubulin B) (converted)
T1 construct: endogenous in cells; host or cells: MCF-7
T1 sequence (P07437 whole entry): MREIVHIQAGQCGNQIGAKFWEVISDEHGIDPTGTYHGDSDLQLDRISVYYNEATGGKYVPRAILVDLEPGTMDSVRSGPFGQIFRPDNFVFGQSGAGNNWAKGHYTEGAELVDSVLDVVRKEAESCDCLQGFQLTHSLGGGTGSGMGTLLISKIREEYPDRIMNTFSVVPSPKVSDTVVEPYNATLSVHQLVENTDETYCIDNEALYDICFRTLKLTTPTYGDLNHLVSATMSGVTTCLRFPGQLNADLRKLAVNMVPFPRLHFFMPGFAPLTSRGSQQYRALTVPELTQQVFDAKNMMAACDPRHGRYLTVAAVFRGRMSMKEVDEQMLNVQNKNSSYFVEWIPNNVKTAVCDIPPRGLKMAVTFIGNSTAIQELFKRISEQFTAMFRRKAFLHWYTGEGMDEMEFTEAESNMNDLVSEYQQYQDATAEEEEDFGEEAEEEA
T1 sequence (P68363 whole entry partner): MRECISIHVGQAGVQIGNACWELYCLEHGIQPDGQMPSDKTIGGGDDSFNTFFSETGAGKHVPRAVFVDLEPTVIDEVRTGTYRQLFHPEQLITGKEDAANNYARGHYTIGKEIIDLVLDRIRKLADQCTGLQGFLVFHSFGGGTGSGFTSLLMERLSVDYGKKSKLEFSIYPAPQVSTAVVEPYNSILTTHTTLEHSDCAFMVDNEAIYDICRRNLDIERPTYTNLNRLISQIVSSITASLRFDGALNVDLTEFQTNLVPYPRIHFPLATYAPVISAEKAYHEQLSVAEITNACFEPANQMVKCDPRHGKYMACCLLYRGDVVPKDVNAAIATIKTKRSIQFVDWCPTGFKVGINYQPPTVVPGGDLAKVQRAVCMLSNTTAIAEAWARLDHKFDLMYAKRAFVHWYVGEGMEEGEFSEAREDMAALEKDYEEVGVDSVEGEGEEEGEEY
Text: as §4

[10] = system: MCF-7 cells; assay: DNA fragmentation through DPA assay in MCF-7 cells; format: cell-based, human; conditions: treated MCF-7 cells
Experimental: as §4
Assessment of DNA fragmentation of the cells was done, as described by the reported method. Briefly, the cells were lysed for 15 min on ice with 0.5% (v/v) Triton X-100, 20 mM EDTA, and […] Tris (pH 8.0). Then, the cells were centrifuged to separate intact chromatin from DNA fragments for 20 min, at 27,000 Xg. Measurement of the amount of DNA was done using a diphenylamine reagent, and the optical density was measured at 600 nm.

[11] = system: Streptococcus pneumonia RCMB 010010; assay: Well diffusion assay, Streptococcus pneumonia; format: cell-based; conditions: Streptococcus pneumonia RCMB 010010, well diffusion
Experimental: (§5) The newly synthesized peptides 1–8 (compound 6 was not tested) was evaluated for their antimicrobial activity of against three pathogenic Gram-positive bacteria (Staphylococcus aureus ATCC25923, Streptococcus pneumoniaRCMB 010010, and Micrococcus Luteus), three pathogenic Gram-negative bacteria viz. Escherichia coli ATCC25922, Pseudomonas aeruginosa ATCC7853, and Proteus vulgaris RCMB 010085, and the yeast Candida albicans using the well diffusion method. […] The obtained data were documented for each derivative as the average diameter of the inhibition zones (IZ) in mm for the bacterial or the yeast growth around the discs (Table 2). […] Although Micrococcus Luteus bacteria is a normal commensal of human skin and the upper respiratory tract, it acts as an opportunistic pathogen and has been associated with various diseases including meningitis, septic arthritis, and endocarditis. […] Antimicrobial activity of the tested chemical peptides was determined by the well diffusion method for pathogenic bacteria having Gram-positive bacteria (Staphylococcus aureus ATCC25923, Streptococcus pneumonia, and Micrococcus luteus) and Gram-negative bacteria (Escherichia coli ATCC25922, Pseudomonas aeruginosa ATCC7853, and Proteus sp.) and Candida albicans as human pathogen yeast using the well diffusion method.

[12] = system: Staphylococcus aureus ATCC25923; assay: Well diffusion assay, Staphylococcus aureus; format: cell-based
Experimental: as §5

[13] = system: Micrococcus Luteus; assay: Well diffusion assay, Micrococcus Luteus; format: cell-based
Experimental: as §5

[14] = system: Escherichia coli ATCC25922; assay: Well diffusion assay, Escherichia coli; format: cell-based
Experimental: as §5

[15] = system: Pseudomonas aeruginosa ATCC7853; assay: Well diffusion assay, Pseudomonas aeruginosa; format: cell-based
Experimental: as §5

[16] = system: Proteus vulgaris RCMB 010085; assay: Well diffusion assay, Proteus vulgaris; format: cell-based; conditions: Proteus vulgaris RCMB 010085, well diffusion
Experimental: as §5

[17] = system: Candida albicans; assay: Well diffusion assay, Candida albicans; format: cell-based
Experimental: as §5

[18] = system: human liver cancer (HepG-2) cell line; assay: MTT cytotoxicity assay, liver HepG-2 cancer cell line; format: cell-based; conditions: Homo sapiens, HepG2; MTT, mean of three replicates; read-out: IC50 (µg/mL) ± SD HepG-2
Experimental: as §1, §2

CC1(C(=O)NCC(=O)NCC(=O)NCC(=O)NCC(=O)O)CCC2(C)CCC3(C)C(=CC(=O)C4C5(C)CCC(O)C(C)(C)C5CCC43C)C2C1 (stereo not drawn) [Compound 5, 1-(10-Hydroxy-2,4a,6a,6b,9,9,12a-heptamethyl-13-oxo-1,2,3,4,4a,5,6,6a,6b,7,8,8a,9,10,11,12,12a,12b,13,14b-icosahydropicen-2-yl)-1,4,7,10-tetraoxo-2,5,8,11-tetraazatridecan-13-oic Acid] (X1-GGGG-OH)
IC50 [1]: 5 ± 0.3 µg/mL (≈ 7.15 µM) | IC50 [2]: 5.2 ± 0.8 µg/mL (≈ 7.44 µM) | cytotoxicity percentage ([2]; human, 10 µg/mL): 96.16% | cytotoxic effect on normal cells BJ-1 [3]: 20% | level of Bcl-2 [4]: 3.40 ng/mL | level of Bax protein [5]: 249.9 pg/mL | rise of p53 level versus untreated MCF-7 ([6]; MCF-7, 5 μg/mL, 24 h): approximately six-fold | level of p53 ([6]; MCF-7 cells treated at IC50 5 μg/mL for 24 h, untreated 111.07 Pg/mL): 679.8 pg/mL | level of caspase-3 [7]: 477 ng/mL | caspase-7 level elevation versus untreated cells ([8]; MCF-7, 5 μg/mL, 24 h): about a three-fold | level of caspase-7 [8]: 0.9 ng/mL | IC50 [9]: 0.848 µM | DNA fragmentation, times the percent in untreated cells [10]: about 4.5 fold | percentage of DNA fragmentation ([10]; untreated 7.8%): 35% | Diameter of Inhibition Zone (mm) [11]: 16 ± 0.12 mm | Diameter of Inhibition Zone (mm) [12]: 15 ± 0.15 mm | Diameter of Inhibition Zone (mm) [13]: 30 ± 0.15 mm | Diameter of Inhibition Zone (mm) [14]: 18 ± 0.23 mm | Diameter of Inhibition Zone (mm) [15]: 17 ± 0.16 mm | Diameter of Inhibition Zone (mm) [16]: 10 ± 0.17 mm | Diameter of Inhibition Zone (mm) [17]: 13 ± 0.17 mm

COc1cccc2c1C(=O)c1c(O)c3c(c(O)c1C2=O)C[C@@](O)(C(=O)CO)C[C@@H]3O[C@H]1C[C@H](N)[C@H](O)[C@H](C)O1 [DOX, doxorubicin, reference compound]
IC50 [1]: 7.07 ± 1 µg/mL (≈ 13 µM) | IC50 [2]: 1.09 ± 3 µg/mL (≈ 2.01 µM) | IC50 [18]: 0.54 ± 1 µg/mL (≈ 0.994 µM) | level of Bax protein [5]: 259.2 pg/mL | level of caspase-3 [7]: 650 ng/mL | level of caspase-7 [8]: 1.9 ng/mL
